The source of these data is patent publication US10669283B2, “Compound and pharmacologically acceptable salt thereof” (MEIJI SEIKA PHARMA CO., LTD., priority 2016, dated 2020).

The test system of one test is PDE4. The experiment in a line: PDE4 inhibition, scintillation proximity assay (SPA).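 For PDE4 Inhibitory Activity (concentration for the inhibition rate of 50%): A below 100 nM B 100 to below 1000 nM C 1000 nM or more.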 It is filed as biochemical. The note with it: scintillation proximity assay (SPA); evaluated as classes A, B, C; read-out: PDE4 Inhibitory Activity (concentration for the inhibition rate of 50%). As for the experimental part:
The PDE4 inhibitory activity was measured using scintillation proximity assay (SPA) as follows. A sample compound dissolved in dimethyl sulfoxide was diluted 1:10 in reaction buffer solution which contained 50 mM of Tris-HCl with pH 7.4, 8.3 mM of MgCl2, 1.7 mM of EGTA, and 3 mg/mL of bovine serum albumin (BSA). Then, 10 μL of the diluted solution was added in a 96-well assay plate. Moreover, 50 μL of PDE4 diluted 1:375 in the reaction buffer solution was added, and then 40 μL of [2,8-^3H]-adenosine-3′,5′-cyclic phosphate triethylammonium salt diluted 1:1000 in the reaction buffer solution was added. The mixture was allowed to stand at room temperature for 120 minutes. Thereafter, […] of RNA binding YSi-SPA beads suspension containing ZnSO4 was added and the mixture was allowed to stand at room temperature for 15 minutes, followed by adsorption of the enzyme reaction product to the beads. After that, the radioactivity was measured using a liquid scintillation counter for a 96-well plate. The mixture without the enzyme preparation added but only the reaction buffer solution added is a blank, and the mixture with the enzyme preparation added and only dimethyl sulfoxide added instead of the sample solution is a control.
A general note: SPA uses beads or plates that emit light when radiolabelled molecules are held near them.
Regarding `CC(C)(O)C(F)(F)Oc1ccc(-c2cscn2)c2oc(N3CC4CC(C3)N4)nc12` [Example 307, 1-((2-(3,6-Diazabicyclo[3.1.1]heptan-3-yl)-7-(thiazol-4-yl)benzo[d]oxazol-4-yl)oxy)-1,1-difluoro-2-methylpropan-2-ol], the IC50 is below 100 nM.

`FC(F)(F)c1ccc(-c2nccs2)c2oc(N3CC4CC(C3)N4)nc12` [Example 32, 2-(3,6-Diazabicyclo[3.1.1]heptan-3-yl)-7-(thiazol-2-yl)-4-(trifluoromethyl)benzo[d]oxazole]: the IC50 was below 100 nM.

For the compound `CC(C)(O)C(C)(C)OC(c1ccc(-c2nccs2)c2oc(N3CC4CC(C3)N4)nc12)C(F)(F)F` (stereo not shown) [Example 280, 3-(1-(2-(3,6-Diazabicyclo[3.1.1]heptan-3-yl)-7-(thiazol-2-yl)benzo[d]oxazol-4-yl)-2,2,2-trifluoroethoxy)-2,3-dimethylbutan-2-ol], the IC50 was below 100 nM.

For the compound `COCCOC(c1cc(-c2nccs2)c2oc(N3CC4CCC(C3)N4)nc2c1)C(F)(F)F` (stereo not shown) [Example 147, 2-(3,8-Diazabicyclo[3.2.1]octan-3-yl)-7-(thiazol-2-yl)-5-(2,2,2-trifluoro-1-(2-methoxyethoxy)ethyl)benzo[d]oxazole], the IC50 is below 100 nM.

In the case of `CSc1cc(-c2nccs2)c2oc(N3CC4CC(C3)N4)nc2c1` [Example 40, 2-(3,6-Diazabicyclo[3.1.1]heptan-3-yl)-5-(methylthio)-7-(thiazol-2-yl)benzo[d]oxazole], the IC50 is below 100 nM.

Regarding `CC(O)(c1ccc(-c2nccs2)c2oc(N3CC4CC(C3)N4)nc12)C(F)(F)F` (stereo not shown) [Example 234, 2-(2-(3,6-Diazabicyclo[3.1.1]heptan-3-yl)-7-(thiazol-2-yl)benzo[d]oxazol-4-yl)-1,1,1-trifluoropropan-2-ol], the IC50 is below 100 nM.

Turning to `CC(=O)Nc1ccc(-c2nccs2)c2oc(N3CC4CCCC(C3)N4)nc12` [Example 34, N-(2-(3,9-Diazabicyclo[3.3.1]nonan-3-yl)-7-(thiazol-2-yl)benzo[d]oxazol-4-yl)acetamide], the IC50 was below 100 nM.

Turning to `OC(c1cc(-c2nccs2)c2oc(N3CC4CC(C3)N4)nc2c1OC(F)(F)F)C(F)F` (stereo not shown) [Example 207, 1-(2-(3,6-Diazabicyclo[3.1.1]heptan-3-yl)-7-(thiazol-2-yl)-4-(trifluoromethoxy)benzo[d]oxazol-5-yl)-2,2-difluoroethan-1-ol], the IC50 is below 100 nM.

As to `OC(c1cc(-c2nccs2)c2oc(N3CC4CCC(C3)N4)nc2c1)C(F)(F)F` (stereo not shown) [Example 139, 1-(2-(3,8-Diazabicyclo[3.2.1]octan-3-yl)-7-(thiazol-2-yl)benzo[d]oxazol-5-yl)-2,2,2-trifluoroethan-1-ol], the IC50 was below 100 nM.

As to `O=C(O)c1cc(-c2nccs2)c2oc(N3CC4CCCC(C3)N4)nc2c1OC(F)(F)F` [Example 191, 2-(3,9-Diazabicyclo[3.3.1]nonan-3-yl)-7-(thiazol-2-yl)-4-(trifluoromethoxy)benzo[d]oxazole-5-carboxylic acid], the IC50 was in the range of 100 to 1000 nM.

With `FC(F)(F)c1c(Cl)cc(-c2nccs2)c2oc(N3CC4COCC(C3)N4)nc12` [Example 19, 7-(5-Chloro-7-(thiazol-2-yl)-4-(trifluoromethyl)benzo[d]oxazol-2-yl)-3-oxa-7,9-diazabicyclo[3.3.1]nonane], the IC50 is below 100 nM.

With `CC(C)(O)COc1ccc(-c2nccs2)c2oc(N3CC4CC(C3)N4)nc12` [Example 279, 1-((2-(3,6-Diazabicyclo[3.1.1]heptan-3-yl)-7-(thiazol-2-yl)benzo[d]oxazol-4-yl)oxy)-2-methylpropan-2-ol], the IC50 is below 100 nM.

For the compound `OCc1ccc(-c2nccs2)c2oc(N3CC4CCC(C3)N4)nc12` [Example 132, (2-(3,8-Diazabicyclo[3.2.1]octan-3-yl)-7-(thiazol-2-yl)benzo[d]oxazol-4-yl)methanol], the IC50 was below 100 nM.

`CC(O)(c1cc(-c2nccs2)c2oc(N3CC4CC(C3)N4)nc2c1OC(F)(F)F)C(F)(F)F` (stereo not shown) [Example 216, 2-(2-(3,6-Diazabicyclo[3.1.1]heptan-3-yl)-7-(thiazol-2-yl)-4-(trifluoromethoxy)benzo[d]oxazol-5-yl)-1,1,1-trifluoropropan-2-ol]: the IC50 is below 100 nM.

On to `COC1(c2cc(-c3nccs3)c3oc(N4CC5CC(C4)N5)nc3c2OC(F)(F)F)CC1` [Example 283, 2-(3,6-Diazabicyclo[3.1.1]heptan-3-yl)-5-(1-methoxycyclopropyl)-7-(thiazol-2-yl)-4-(trifluoromethoxy)benzo[d]oxazole], for which the IC50 is below 100 nM.

For the compound `c1csc(-c2cc(OCC3COC3)cc3nc(N4CC5CCC(C4)N5)oc23)n1` [Example 70, 2-(3,8-Diazabicyclo[3.2.1]octan-3-yl)-5-(oxetan-3-ylmethoxy)-7-(thiazol-2-yl)benzo[d]oxazole], the IC50 is below 100 nM.

Take `CCOC(=O)c1cc(-n2cccn2)c2oc(N3CC4CC(C3)N4)nc2c1` [Example 91, Ethyl 2-(3,6-diazabicyclo[3.1.1]heptan-3-yl)-7-(1H-pyrazol-1-yl)benzo[d]oxazole-5-carboxylate]: the IC50 was above 1000 nM.

As for `FC(F)(F)c1cc(-c2nccs2)c2oc(N3CC4CCC(C3)N4)nc2c1` [Example 51, 2-(3,8-Diazabicyclo[3.2.1]octan-3-yl)-7-(thiazol-2-yl)-5-(trifluoromethyl)benzo[d]oxazole], the IC50 was below 100 nM.

For the compound `CC(C)c1cc(-c2nccs2)c2oc(N3CC4CC(C3)N4)nc2c1` [Example 22], the IC50 is below 100 nM.

Consider `COC(C)c1ccc(-c2nccs2)c2oc(N3CC4CC(C3)N4)nc12` (stereo not shown) [Example 241, 2-(3,6-Diazabicyclo[3.1.1]heptan-3-yl)-4-(1-methoxyethyl)-7-(thiazol-2-yl)benzo[d]oxazole], for which the IC50 was below 100 nM.

Regarding `CN(CCO)C(=O)c1cc(-c2nccs2)c2oc(N3CC4CCC(C3)N4)nc2c1OC(F)(F)F` [Example 193, 2-(3,8-Diazabicyclo[3.2.1]octan-3-yl)-N-(2-hydroxyethyl)-N-methyl-7-(thiazol-2-yl)-4-(trifluoromethoxy)benzo [d]oxazole-5-carboxamide], the IC50 was below 100 nM.

As for `COC(c1ccc(-c2nccs2)c2oc(N3CC4CCC(C3)N4)nc12)C(F)(F)F` (stereo not shown) [Example 222, 2-(3,8-Diazabicyclo[3.2.1]octan-3-yl)-7-(thiazol-2-yl)-4-(2,2,2-trifluoro-1-methoxyethyl)benzo[d]oxazole], the IC50 is below 100 nM.

Regarding `C[S+]([O-])c1cc(-c2nccs2)c2oc(N3CC4CCC(C3)N4)nc2c1` (stereo not shown) [Example 42, 2-(3,8-Diazabicyclo[3.2.1]octan-3-yl)-5-(methylsulfinyl)-7-(thiazol-2-yl)benzo[d]oxazole], the IC50 was below 100 nM.

Still in this test, the particulars now being: scintillation proximity assay; class symbols; read-out: PDE4 Inhibitory Activity.
As to `O=S1(=O)CCN(c2ccc(-c3nccs3)c3oc(N4CC5CC(C4)N5)nc23)CC1` [Example 398, 4-(2-(3,6-diazabicyclo[3.1.1]heptan-3-yl)-7-(thiazol-2-yl)benzo[d]oxazol-4-yl)thiomorpholine 1,1-dioxide], the IC50 was below 100 nM.

As for `COC(C)(C)C(F)(F)Oc1ccc(-c2nccs2)c2oc(N3CC4CC(C3)N4)nc12` [Example 393, 2-(3,6-diazabicyclo[3.1.1]heptan-3-yl)-4-(1,1-difluoro-2-methoxy-2-methylpropoxy)-7-(thiazol-2-yl) benzo[d]oxazole], the IC50 is below 100 nM.
